Reference: the supplement of paper PMC10307832

Experiments:
Experiment in all cases: relative viability (nuclei count vs DMSO), 5 days (fraction); higher = more cells survive
[1] = compound: CO[C@H]1C[C@@H]2CC[C@@H](C)[C@@](O)(O2)C(=O)C(=O)N2CCCC[C@H]2C(=O)O[C@H]([C@H](C)C[C@@H]2CC[C@@H](OCCO)[C@H](OC)C2)CC(=O)[C@H](C)/C=C(\C)[C@@H](O)[C@@H](OC)C(=O)[C@H](C)C[C@H](C)/C=C/C=C/C=C/1C [Everolimus] + O=C(c1cc(Cc2n[nH]c(=O)c3ccccc23)ccc1F)N1CCN(C(=O)C2CC2)CC1 [Olaparib] (partner 8 µM)
Outline: (§1)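 Cells from lung cancer lines were seeded into 1536-well plates and, one day later, dosed by pin tool. Treatments were either a single drug or a fixed dose of an anchor drug with five library-drug doses (not always all listed) in √10 steps. After 5 days, nuclei were stained in a one-step fixation (final 0.05% Triton X-100, 1% formaldehyde, 1 ug/ml Hoechst) and counted on 4× images, and relative viability is the treated-to-vehicle nuclei ratio, as the median of duplicate plates.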

[2] = compound: CO[C@H]1C[C@@H]2CC[C@@H](C)[C@@](O)(O2)C(=O)C(=O)N2CCCC[C@H]2C(=O)O[C@H]([C@H](C)C[C@@H]2CC[C@@H](OCCO)[C@H](OC)C2)CC(=O)[C@H](C)/C=C(\C)[C@@H](O)[C@@H](OC)C(=O)[C@H](C)C[C@H](C)/C=C/C=C/C=C/1C [Everolimus] + CS(=O)(=O)CCNCc1ccc(-c2ccc3ncnc(Nc4ccc(OCc5cccc(F)c5)c(Cl)c4)c3c2)o1 [Lapatinib] (partner 2 µM)
Outline: as §1

[3] = compound: CO[C@H]1C[C@@H]2CC[C@@H](C)[C@@](O)(O2)C(=O)C(=O)N2CCCC[C@H]2C(=O)O[C@H]([C@H](C)C[C@@H]2CC[C@@H](OCCO)[C@H](OC)C2)CC(=O)[C@H](C)/C=C(\C)[C@@H](O)[C@@H](OC)C(=O)[C@H](C)C[C@H](C)/C=C/C=C/C=C/1C [Everolimus] + NC(=O)Nc1cc(-c2cccc(F)c2)sc1C(=O)N[C@H]1CCCNC1 [AZD7762] (partner 0.2 µM)
Outline: as §1

[4] = compound: CO[C@H]1C[C@@H]2CC[C@@H](C)[C@@](O)(O2)C(=O)C(=O)N2CCCC[C@H]2C(=O)O[C@H]([C@H](C)C[C@@H]2CC[C@@H](OCCO)[C@H](OC)C2)CC(=O)[C@H](C)/C=C(\C)[C@@H](O)[C@@H](OC)C(=O)[C@H](C)C[C@H](C)/C=C/C=C/C=C/1C [Everolimus] + Nc1ncn([C@H]2C[C@H](O)[C@@H](CO)O2)c(=O)n1 [Decitabine] (partner 2 µM)
Outline: as §1

Cell Line	relative viability ([1]; first compound 0.01 µM)	relative viability ([1]; first compound 0.03162 µM)	relative viability ([1]; first compound 0.1 µM)	relative viability ([1]; first compound 0.3162 µM)	relative viability ([1]; first compound 1 µM)	relative viability ([2]; first compound 0.01 µM)	relative viability ([2]; first compound 0.03162 µM)	relative viability ([2]; first compound 0.1 µM)	relative viability ([2]; first compound 0.3162 µM)	relative viability ([2]; first compound 1 µM)	relative viability ([3]; first compound 0.01 µM)	relative viability ([3]; first compound 0.03162 µM)	relative viability ([3]; first compound 0.1 µM)	relative viability ([3]; first compound 0.3162 µM)	relative viability ([3]; first compound 1 µM)	relative viability ([4]; first compound 0.01 µM)	relative viability ([4]; first compound 0.03162 µM)	relative viability ([4]; first compound 0.1 µM)	relative viability ([4]; first compound 0.3162 µM)	relative viability ([4]; first compound 1 µM)
HCC-78	0.827	0.43	0.657	0.717	0.678	0.633	1.28	0.521	0.36	0.534	0.455	0.427	0.361	0.553	0.384	0.593	0.605	0.636	0.643	0.603
HCC-366	0.337	0.271	0.302	0.27	0.284	0.89	1.11	0.994	0.992	0.589	0.371	0.245	0.334	0.29	0.209	0.301	0.226	0.257	0.291	0.212
HCC-827	0.73	0.672	0.681	0.501	0.645	0.191	0.13	0.163	0.204	0.153	0.188	0.164	0.185	0.193	0.163	0.282	0.234	0.303	0.319	0.287
HOP-62	0.354	0.434	0.5	0.505	0.339	0.646	0.569	0.533	0.659	0.782	0.289	0.346	0.412	0.402	0.37	0.223	0.278	0.195	0.251	0.321
LC-2-ad	0.861	0.972	0.817	0.84	0.864	0.924	0.874	0.941	0.931	1.08	0.802	0.85	0.775	0.79	0.83	0.846	0.779	0.888	0.819	0.726
LCLC-97TM1	0.356	0.317	0.291	0.269	0.434	0.611	0.869	0.759	0.817	0.852	0.273	0.145	0.189	0.221	0.148	0.197	0.205	0.184	0.208	0.218
LK-2	0.594	0.603	0.413	0.403	0.351	0.664	0.533	0.787	0.471	0.449	0.213	0.197	0.173	0.186	0.208	0.268	0.156	0.19	0.194	0.193
LOU-NH91	0.744	0.829	0.789	0.788	0.777	0.553	0.56	0.58	0.615	0.546	0.651	0.654	0.621	0.645	0.647	0.718	0.76	0.702	0.699	0.686
LU99A	0.246	0.21	0.226	0.216	0.236	0.621	0.548	0.573	0.52	0.55	0.213	0.279	0.213	0.246	0.33	0.537	0.514	0.43	0.485	0.566
LXF-289	1.03	1.04	0.885	1.03	1	0.908	0.951	0.889	0.889	0.899	1.18	1.28	1.17	1.12	1.24	0.358	0.359	0.306	0.38	0.411
NCI-H23	0.261	0.219	0.267	0.221	0.22	0.736	0.685	0.491	0.695	0.693	0.144	0.185	0.218	0.219	0.175	0.264	0.283	0.257	0.259	0.254
NCI-H322M	0.723	0.686	0.742	0.704	0.73	0.547	0.545	0.601	0.526	0.508	0.473	0.39	0.481	0.397	0.43	0.766	0.7	0.585	0.596	0.609
NCI-H358	0.424	0.384	0.303	0.325	0.389	0.309	0.338	0.377	0.345	0.295	0.358	0.361	0.396	0.18	0.325	0.204	0.195	0.218	0.19	0.205
NCI-H460	0.44	0.407	0.4	0.403	0.422	0.912	0.919	0.805	0.866	0.84	0.669	0.658	0.657	0.465	0.431	0.498	0.53	0.506	0.369	0.421
NCI-H596	0.642	0.475	0.618	0.515	0.506	0.715	0.677	0.545	0.676	0.677	0.945	0.726	0.609	0.665	0.674	0.761	0.595	0.739	0.69	0.605
NCI-H647	0.268	0.303	0.199	0.176	0.368	0.583	0.562	0.505	0.536	0.87	0.249	0.273	0.237	0.207	0.364	0.16	0.157	0.101	0.0533	0.158
NCI-H650	0.397	0.37	0.373	0.284	0.307	0.652	–	0.716	0.598	0.479	0.711	0.737	0.755	0.531	0.69	0.316	0.287	0.335	0.281	0.318
NCI-H727	0.719	0.673	0.569	0.524	0.755	0.435	0.543	0.402	0.527	0.561	0.482	0.483	0.454	0.565	0.523	0.73	0.594	0.591	0.642	0.617
NCI-H838	0.493	0.484	0.494	0.479	0.403	0.517	0.535	0.48	0.439	0.625	0.767	0.777	0.75	0.831	0.763	0.435	0.444	0.356	0.384	0.392
NCI-H1355	0.486	0.514	0.426	0.536	0.48	0.471	0.44	0.363	0.53	0.436	0.552	0.468	0.456	0.471	0.376	0.353	0.3	0.305	0.318	0.261
NCI-H1395	0.405	0.423	0.377	0.401	0.379	0.886	0.755	0.585	0.614	0.869	0.394	0.374	0.335	0.405	0.339	0.59	0.6	0.563	0.574	0.6
NCI-H1437	0.632	0.622	0.588	0.596	0.598	0.642	0.55	0.464	0.508	0.417	1.1	1.11	1.1	0.997	0.875	0.597	0.483	0.59	0.461	0.466
NCI-H1651	0.185	0.201	0.254	0.229	0.211	0.537	0.391	0.497	0.533	0.521	0.197	0.218	0.224	0.208	0.231	0.532	0.383	0.464	0.489	0.484
NCI-H1666	0.725	0.779	0.781	0.731	0.823	0.459	0.445	0.335	0.45	0.475	0.855	0.84	0.821	0.899	0.908	0.676	0.553	0.639	0.75	0.672
NCI-H1734	0.448	0.409	0.456	0.406	0.407	0.715	0.582	0.582	0.551	0.73	0.336	0.365	0.291	0.283	0.313	0.422	0.397	0.351	0.371	0.367
NCI-H1755	0.764	0.592	0.697	0.556	0.588	0.866	0.964	0.769	0.876	0.77	0.379	0.39	0.382	0.344	0.345	0.582	0.56	0.489	0.52	0.534
NCI-H1792	0.21	0.155	0.167	0.113	0.119	0.637	0.656	0.679	0.593	0.734	0.312	0.312	0.304	0.185	0.262	0.396	0.338	0.249	0.276	0.199
NCI-H1793	0.346	0.345	0.319	0.343	0.235	0.316	0.337	0.378	0.352	0.278	0.242	0.244	0.259	0.21	0.197	0.283	0.262	0.339	0.344	0.263
NCI-H1915	0.282	0.31	0.285	0.26	0.288	0.903	0.904	0.877	0.826	0.88	0.632	0.567	0.561	0.587	0.554	0.25	0.234	0.238	0.273	0.263
